Experiments:
caspase 8 and caspase 9 = test: Western blot of caspase 8 and caspase 9 cleavage in K562 cells; assay type: cell-based, human; details: K562, 5 µM
Protocol: 0.15 × 10^6 cells/ml were seeded on a 6-well plate (Nunclon, Thermo Fisher Scientific, Waltham, MA, USA). Following 24 hour preincubation the cells were treated with either the compound or 1% DMSO (control) for 24 or 48 hours. Cells were lysed using RIPA Buffer (Sigma) supplemented with Complete Protease Inhibitor Coctail (Roche, Basel, Switzerland) and PhosSTOP (Roche). Samples containing 20 µg protein were resuspended in 4× Laemmli’s Buffer (Biorad, Hercules, CA, USA), separated on 10% acrylamide gel (TGX Stain-Free Gel Kit, Biorad) and blotted onto nitrocellulose membrane (Panreac Applichem ITW, Darmstadt, Germany). Blots were blocked in 5% non-fat dry milk in TBST (1% (v/v) Tween-20, 140 mM NaCl, 25 mM Trizma, pH = 7.4 adjusted with HCl) for 1 h and incubated overnight with the antibodies against caspase-9 (9502), caspase-8 (9746), caspase-3 (9662), caspase-3 cleaved (9661) and β-actin (3700), all from Cell Signaling Technology, and antibody against poly(ADP-ribose)polymerase (PARP, 551025) from BD Pharmingen. Membranes were incubated with appropriate species-specific secondary antibodies conjugated with HRP (Cell Signaling Technology, Danvers, MA, USA). Blots were developed using ECL substrate (Biorad, Hercules, CA, USA). The experiment was performed in at least three independent biological replicates.

[1] = test system: HeLa cells with knocked-down ABC50 (HeLa kdABC); test: MTT viability of HeLa cells with siRNA knockdown of ABC50; assay type: cell-based, human; details: 48 h
Protocol: Human umbilical vein endothelial cells (purchased from Life Technologies, Carlsbad, CA, USA) were cultured according to the manufacturer’s instructions in Medium 200 supplemented with Low Serum Growth Supplement. 1 × 10^4 cells were seeded on each well on a 96-well plate (Nunc, Roskilde, Denmark). The HeLa (human cervix carcinoma, cat. #93021013), CFPAC (human pancreatic adenocarcinoma, cat. #91112501), K562 (chronic myelogenous leukemia, cat. #89121407), HL-60 (acute myelogenous leukemia, cat. #98070106), and MOLT-4 (Human acute T lymphoblastic leukemia, cat. #85011413) cells were purchased from European Collection of Authenticated Cell Cultures (ECACC). They were cultured in an RPMI 1640 medium supplemented with antibiotics (streptomycin, penicillin) and 10% fetal calf serum (20% for HL60), in a 5% CO2-95% air atmosphere. 7 × 10^3 cells were seeded on each well on a 96-well plate (Nunc). 24 hours later the cells were exposed to the test compounds. […] The cytotoxicity of all compounds was determined by the MTT (3-(4,5-dimethylthiazol-2-yl)-2,5-diphenyltetrazolium bromide) assay (Sigma, St. Louis, MO, USA). […] MTT-formazan crystals were dissolved in 20% SDS and 50% DMF at pH 4.7 and VIS light absorption was measured at 570 and 650 nm on a microplate reader FLUOstar Omega (BMG Labtech, Offenburg, Germany). […]
HeLa cells were transfected with a siRNA with the aid of Lipofectamine 3000 (Invitrogen, Carlsbas, CA, USA) according to manufacturer’s instructions. […] Unless otherwise stated, cells transfected with a given siRNA were analyzed 48 h post-transfection. siRNAs for ABC50 (NM_001090) were designed with the aid of the siDESIGN Center (www.dharmacon.com), synthesized in-house (the Department of Bioorganic Chemistry, Centre of Molecular and Macromolecular Studies, Polish Academy of Sciences (CMMS PAS) and purified by high-performance liquid chromatography (HPLC). The silencing efficiency of siRNAs was determined by western blotting of ABC50 protein in transfected HeLa cells. The following siRNA duplexes (S—sense strand, AS—antisense strand) were used: […]

SMILES	cleavage of caspase 8 and caspase 9 (Western blot) (caspase 8 and caspase 9; 24 h)	cleavage of caspase 8 and caspase 9 (Western blot) (caspase 8 and caspase 9; 48 h)	viability of HeLa cells with normal levels of ABC50 (siCTL) ([1]; control siRNA, up to 2.5 µM)	reduction of viability of HeLa kdABC ([1]; si166, 5 µM)	viability of HeLa cells with knocked-down ABC50 (HeLa kdABC) ([1]; si166, up to 2.5 µM)
CCC12C(=O)C(CC)(C(c3ccccc3)=C1c1ccccc1)C1C(=O)N(CC(O)CNC(C)C)C(=O)C12 (centres unmarked) [Compound 5]	cleaved form of caspase 9	Cleaved (i.e., activated) forms of caspases 8/9 were detected			
CN(C)CCN1C(=O)C2C(C1=O)C1(c3ccccc3)CC2(c2ccccc2)C(c2ccccc2)=C1c1ccccc1 (centres unmarked) [Compound 6]			significantly lower	about 20%	not affected

Source: paper PMC6770581, “New Thalidomide-Resembling Dicarboximides Target ABC50 Protein and Show Antileukemic and Immunomodulatory Activities” (Biomolecules, 2019)
